Test results taken from article PMC10518257 (Nature Cancer, 2023).
Where “and” joins values, the source holds several entries; their conditions need not be identical. Equal values may be shown once. Read-outs that look alike come from different tables or passages of the source.

Tests used:
[1] = Animal weight of tumor-bearing mice; conditions: individual animals
Ba/F3-RET^M918T = assay: Growth inhibition assay in Ba/F3 cells (CellTiter-Glo, 72 h); assay type: cell-based; conditions: Mus musculus, BaF3, 72 h, read-out: GI50 value (Mean ± SD), Ba/F3-RET^M918T, CellTiter-Glo, 72 h
Ba/F3 cells = assay: as above; assay type: cell-based
[2] = test system: Ba/F3 KIF5B–RET^G810R allograft tumors; assay: Subcutaneous allograft efficacy study; assay type: in vivo, BALB/c nude mice; conditions: in mm³ (unit assumed);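 further: mean tumor volume per dosing group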
LUAD-0087AS2 cells = assay: Growth inhibition (alamarBlue, 96 h); assay type: cell-based, human; conditions: for raw viability signal (Source Data Fig. 3b-c): LUAD-0087AS2, replicate sets
[3] = test system: Ba/F3 KIF5B–RET^WT allograft tumors; assay: Subcutaneous allograft efficacy study; assay type: in vivo, BALB/c nude mice; conditions: Ba/F3-KIF5B::RET, Ext. Data Fig. 9a
[4] = test system: Ba/F3 cells expressing KIF5B–RET^G810S; assay: Growth inhibition assay in Ba/F3 cells (CellTiter-Glo, 72 h); assay type: cell-based; conditions: replicate Sets 1-3

COc1ccc(CN2C3CC2CN(c2ccc(-c4cc(OCC(C)(C)O)cn5ncc(C#N)c45)cn2)C3)cn1 [Selpercatinib]
Animal Weight ([1]; LUAD-0077AS1 PDX, Selpercatinib 10 mg/kg BID, treatment day 4): 24 g (3×) and 21 g and 23 g
Animal Weight ([1]; LUAD-0077AS1 PDX, Selpercatinib 10 mg/kg BID, treatment day 7): 23 g (3×) and 21 g and 24 g
Animal Weight ([1]; LUAD-0077AS1 PDX, Selpercatinib 10 mg/kg BID, treatment day 11): 24 g (2×) and 23 g (2×) and 21 g
Animal Weight ([1]; LUAD-0077AS1 PDX, Selpercatinib 10 mg/kg BID, treatment day 14): 23 g and 24 g (2×) and 21 g and 25 g
Animal Weight ([1]; LUAD-0077AS1 PDX, Selpercatinib 10 mg/kg BID, treatment day 19): 25 g and 23 g and 22 g and 26 g and 24 g
Animal Weight ([1]; LUAD-0087AS2 PDX, Selpercatinib 30 mg/kg BID, treatment day 0): 27 g (4×) and 28 g
Animal Weight ([1]; LUAD-0087AS2 PDX, Selpercatinib 30 mg/kg BID, treatment day 3): 26 g (3×) and 28 g and 27 g
Animal Weight ([1]; LUAD-0087AS2 PDX, Selpercatinib 30 mg/kg BID, treatment day 7): 27 g (3×) and 26 g and 28 g
Animal Weight ([1]; LUAD-0087AS2 PDX, Selpercatinib 30 mg/kg BID, treatment day 10): 27 g (3×) and 26 g (2×)
Animal Weight ([1]; LUAD-0087AS2 PDX, Selpercatinib 30 mg/kg BID, treatment day 14): 26 g (3×) and 27 g (2×)
Animal Weight ([1]; LUAD-0087AS2 PDX, Selpercatinib 30 mg/kg BID, treatment day 17): 27 g (4×) and 26 g
Animal Weight ([1]; LUAD-0087AS2 PDX, Selpercatinib 30 mg/kg BID, treatment day 21): 28 g and 27 g (2×) and 26 g and 25 g
Animal Weight ([1]; LUAD-0087AS2 PDX, Selpercatinib 30 mg/kg BID, treatment day 24): 28 g (2×) and 27 g (2×) and 26 g
Animal Weight ([1]; LUAD-0087AS2 PDX, Selpercatinib 30 mg/kg BID, treatment day 29): 26 g (2×) and 27 g and 28 g (2×)
Animal Weight ([1]; LUAD-0087AS2 PDX, Selpercatinib 30 mg/kg BID, treatment day 32): 26 g (2×) and 28 g (3×)
Animal Weight ([1]; LUAD-0087AS2 PDX, Selpercatinib 30 mg/kg BID, treatment day 35): 26 g (2×) and 28 g and 27 g (2×)
Animal Weight ([1]; LUAD-0087AS2 PDX, Selpercatinib 30 mg/kg BID, treatment day 38): 23 g (2×) and 28 g and 29 g and 26 g
Animal Weight ([1]; LUAD-0087AS2 PDX, Selpercatinib 30 mg/kg BID, treatment day 42): 27 g (4×) and 26 g
Animal Weight ([1]; LUAD-0087AS2 PDX, Selpercatinib 30 mg/kg BID, treatment day 45): 28 g (3×) and 27 g (2×)
GI50 (Ba/F3-RET^M918T): 1.24 ± 0.78 nM
GI50 (Ba/F3 cells; Ba/F3 (parental), replicate Sets 1-3): 3870 nM and 3570 nM
GI50 (Ba/F3 cells; Mus musculus, BaF3, 72 h, read-out: GI50 value (Mean ± SD), Ba/F3, CellTiter-Glo, 72 h): 3980 nM
GI50 (Ba/F3 cells; Mus musculus, BaF3, Ba/F3 (parental), replicate Sets 1-3): 4490 nM
Tumor Volume Mean ([2]; Fig. 7c Ba/F3-KIF5B::RET G810R, selpercatinib 10 mg/kg BID, day 1): 153.47
Tumor Volume Mean ([2]; Fig. 7c Ba/F3-KIF5B::RET G810R, selpercatinib 10 mg/kg BID, day 4): 195.84
Tumor Volume Mean ([2]; Fig. 7c Ba/F3-KIF5B::RET G810R, selpercatinib 10 mg/kg BID, day 8): 432.66
Tumor Volume Mean ([2]; Fig. 7c Ba/F3-KIF5B::RET G810R, selpercatinib 10 mg/kg BID, day 11): 585.46
Tumor Volume Mean ([2]; Fig. 7c Ba/F3-KIF5B::RET G810R, selpercatinib 10 mg/kg BID, day 15): 999.76
Tumor Volume Mean ([2]; Fig. 7d Ba/F3-KIF5B::RET G810R, selpercatinib 30 mg/kg BID, day 1): 157.6
Tumor Volume Mean ([2]; Fig. 7d Ba/F3-KIF5B::RET G810R, selpercatinib 30 mg/kg BID, day 4): 307.7
Tumor Volume Mean ([2]; Fig. 7d Ba/F3-KIF5B::RET G810R, selpercatinib 30 mg/kg BID, day 8): 440.3
Tumor Volume Mean ([2]; Fig. 7d Ba/F3-KIF5B::RET G810R, selpercatinib 30 mg/kg BID, day 11): 551.9
Tumor Volume Mean ([2]; Fig. 7d Ba/F3-KIF5B::RET G810R, selpercatinib 30 mg/kg BID, day 15): 795.7
IC50 (LUAD-0087AS2 cells; Homo sapiens, 96 h, read-out: IC50 for Inhibition of Growth (95% CI)): 11 nM
raw viability signal (Source Data Fig. 3b-c) (LUAD-0087AS2 cells; 0.01 nM): 15388.6 and 12720.2
raw viability signal (Source Data Fig. 3b-c) (LUAD-0087AS2 cells; 0.1 nM): 16047 and 13628.3
raw viability signal (Source Data Fig. 3b-c) (LUAD-0087AS2 cells; 1 nM): 15441.4 and 12355.8
raw viability signal (Source Data Fig. 3b-c) (LUAD-0087AS2 cells; 10 nM): 6632.52 and 4277.26
raw viability signal (Source Data Fig. 3b-c) (LUAD-0087AS2 cells; 100 nM): 5690.09 and 3170.8
raw viability signal (Source Data Fig. 3b-c) (LUAD-0087AS2 cells; 1000 nM): 5599.27 and 2744.81
raw viability signal (Source Data Fig. 3b-c) (LUAD-0087AS2 cells; 10000 nM): 3412.76 and 2132.34
Tumor Volume Mean ([3]; 3 mg/kg BID, Day 1): 153.36 mm3
Tumor Volume Mean ([3]; 3 mg/kg BID, Day 4): 200.42 mm3
Tumor Volume Mean ([3]; 3 mg/kg BID, Day 8): 331.73 mm3
Tumor Volume Mean ([3]; 3 mg/kg BID, Day 11): 595.39 mm3
Tumor Volume Mean ([3]; 3 mg/kg BID, Day 15): 703.72 mm3
Tumor Volume Mean ([3]; 10 mg/kg BID, Day 1): 152.35 mm3
Tumor Volume Mean ([3]; 10 mg/kg BID, Day 4): 168.16 mm3
Tumor Volume Mean ([3]; 10 mg/kg BID, Day 8): 206.58 mm3
Tumor Volume Mean ([3]; 10 mg/kg BID, Day 11): 318.64 mm3
Tumor Volume Mean ([3]; 10 mg/kg BID, Day 15): 406.01 mm3
Tumor Volume Mean ([3]; 30 mg/kg BID, Day 1): 155.70 mm3
Tumor Volume Mean ([3]; 30 mg/kg BID, Day 4): 126.28 mm3
Tumor Volume Mean ([3]; 30 mg/kg BID, Day 8): 138.87 mm3
Tumor Volume Mean ([3]; 30 mg/kg BID, Day 11): 107.82 mm3
Tumor Volume Mean ([3]; 30 mg/kg BID, Day 15): 112.41 mm3
Tumor Volume Mean ([3]; 100 mg/kg BID, Day 1): 157.17 mm3
Tumor Volume Mean ([3]; 100 mg/kg BID, Day 4): 107.92 mm3
Tumor Volume Mean ([3]; 100 mg/kg BID, Day 8): 75.50 mm3
GI50 ([4]; Ba/3-KIF5B-RET-G810S): 182 nM and 173 nM
GI50 ([4]; Mus musculus, BaF3, Ba/3-KIF5B-RET-G810S): 143 nM
